# Patent US10577349B2 (Sanford Burnham Prebys Medical Discovery Institute, priority 2015, dated 2020)
# pIC50: −log10 of the molar value. Read-outs that look alike come from different tables or passages of the source.
# Tests used:
# [1] = test system: UACC903 (BRAF mutant) cell line; experiment: Reverse phase protein array analysis (RPPA), UACC903; assay type: cell-based, human; conditions: UACC903, 1 μM, 24 h
# Protocol: UACC903 and WM1346 cells were treated with DMSO (controls) or 1 μM Compound 38 for 24 h in triplicate. Cells were lysed with lysis buffer (1% Triton X-100, 50 mM HEPES, pH 7.4, 150 mM NaCl, 1.5 mM MgCl2, 1 mM EGTA, 100 mM NaF, 10 mM Na pyrophosphate, 1 mM Na3VO4, 10% glycerol, with freshly added protease and phosphatase inhibitors) and centrifuged at 13,000 g for 20 minutes. Denatured protein lysates containing the same amount of protein were then subjected to RPPA analysis at the RPPA Core Facility, Md. Anderson Cancer Center, as previously described (Tibes. R., et al. Reverse phase protein array: validation of a novel proteomic technology and utility for analysis of primary leukemia specimens and hematopoietic stem cells. Molecular cancer therapeutics 5, 2512-2521 (2006)),
# A reverse phase protein array (RPPA) analysis of BRAF- and NRAS-mutant melanomas was performed to identify protein networks affected by Compound 38 (Table 4).
# [2] = test system: parental and BRAFi-resistant melanoma cultures (A375, WM793, Lu1205); experiment: 2D growth and colony-forming efficiency in parental and BRAFi-resistant melanoma cultures; assay type: cell-based, human; conditions: parental (sensitive) and BRAFi-resistant cultures
# Protocol: For the colony formation assay, cells were plated in triplicate at 500 cells/well in 6-well plates and grown for 16 h before compounds were added for 1-2 weeks, depending on cell line. Colonies were stained with Accustain Crystal Violet solution (Sigma-Aldrich) for 30 min. Plates were rinsed with water, and colonies (>50 cells per clone) were counted. Colony formation efficiency was calculated relative to the number of colonies in control (DMSO)-treated wells. For soft agar assays, melanoma cells were mixed with agar at a final concentration of 0.35% and layered on top of 0.7% agar in 6-well plates. Media supplemented with different compounds was added to plates and changed once per week. After 4 weeks, colonies were counted in 10 random high-power fields.
# To confirm the effect of Compound 38 on the eIF4F complex in BRAFi resistant cultures on neoplastic growth, Compound 38 effectiveness on their two-dimensional (2D) growth in vitro was assessed. […] Parental and BRAFi-resistant NF1-mutant melanomas (A) were monitored for their response to Compound 38 at the indicated concentrations and for their ability to form CFE (B) (A375: FIG. 16A and FIG. 16B, WM793: FIG. 17A and FIG. 17B, Lu1205: FIG. 18A and FIG. 18B). Effectiveness of Compound 38 in NF1-mutant melanoma was further confirmed in primary cultures (FIG. 19A and FIG. 19B).
# [3] = target: EmCV Cap-dependent translation; experiment: In vitro translation assay, FF-EmCV-Ren construct, cap-dependent (FF luciferase); assay type: biochemical, rabbit reticulocyte lysates
# In short: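 RRL + Translation Mix -Met/-Leu 1:1; cpd pre-inc 1 h RT; 0.1 μg RNA/well; 2 h 30° C; Dual-Glo reagent 1 → FF read, reagent 2 → Ren read, 10 min each. Counter-screen: cpd added post-translation.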
# PAMPA Permeability = assay type: in vitro ADME
# A375 = experiment: 48 h Cytotoxicity A375; assay type: cell-based; conditions: Homo sapiens, A-375
smiles,measurement,setting,value
"O=C(/C=C/c1cncc(F)c1)c1c(-c2ccccc2)c2cc(Cl)ccc2[nH]c1=O [Compound 38, 6-Chloro-3-[3-(5-fluoro-pyridin-3-yl)-acryloyl]-4-phenyl-1H-quinolin-2-one]",Ratio [Compound 38/DMSO] A-Raf,[1],0.91
same,Ratio [Compound 38/DMSO] AR,[1],0.92
same,Ratio [Compound 38/DMSO] ATM,[1],0.79
same,Ratio [Compound 38/DMSO] ATR,[1],0.84
same,Ratio [Compound 38/DMSO] BRCA2,[1],0.96
same,Ratio [Compound 38/DMSO] C-Raf,[1],0.92
same,Ratio [Compound 38/DMSO] Chk1,[1],0.89
same,Ratio [Compound 38/DMSO] Ets-1,[1],0.92
same,Ratio [Compound 38/DMSO] GCN5L2,[1],0.88
same,Ratio [Compound 38/DMSO] INPP4b,[1],0.93
same,Ratio [Compound 38/DMSO] MSH6,[1],0.76
same,Ratio [Compound 38/DMSO] PI3K-p85,[1],0.93
same,Ratio [Compound 38/DMSO] PI3K-p110-alpha,[1],0.94
same,Ratio [Compound 38/DMSO] Rad51,[1],0.93
same,Ratio [Compound 38/DMSO] Raptor,[1],0.86
same,Ratio [Compound 38/DMSO] Rictor_pT1135,[1],0.84
same,Ratio [Compound 38/DMSO] S6_pS235_S236,[1],0.63
same,Ratio [Compound 38/DMSO] S6_pS240_S244,[1],0.61
same,Ratio [Compound 38/DMSO] Stat5a,[1],0.85
same,Ratio [Compound 38/DMSO] Tuberin,[1],0.62
same,Ratio [Compound 38/DMSO] YB1,[1],0.77
same,Ratio [Compound 38/DMSO] c-Kit,[1],0.86
same,Ratio [Compound 38/DMSO] c-Myc,[1],0.72
same,Ratio [Compound 38/DMSO] mTOR,[1],0.90
same,Ratio [Compound 38/DMSO] mTOR_pS2448,[1],0.72
same,Ratio [Compound 38/DMSO] p70-S6K_pT389,[1],0.82
same,Growth in 2D and colony-forming efficiency (CFE),[2],effectively attenuated in both parental (sensitive) and resistant cultures
same,pIC50,[3],5.00 to 5.70
same,Papp,"PAMPA Permeability; Donor pH 5.0, Acceptor pH 7.4, read-out: PAMPA Permeability, Pe, Donor pH 5.0",1110 ×10⁻⁶ cm/s
same,Papp,"PAMPA Permeability; Donor pH 6.2, Acceptor pH 7.4, read-out: PAMPA Permeability, Pe, Donor pH 6.2",1150 ×10⁻⁶ cm/s
same,Papp,"PAMPA Permeability; pH 7.4, Donor pH 7.4, Acceptor pH 7.4, read-out: PAMPA Permeability, Pe, Donor pH 7.4",820 ×10⁻⁶ cm/s
same,pIC50,A375,> 5.70
